{
  "source": "ChEMBL document CHEMBL1212936",
  "about": "“Discovery of 2-[1-(4-chlorophenyl)cyclopropyl]-3-hydroxy-8-(trifluoromethyl)quinoline-4-carboxylic acid (PSI-421), a P-selectin inhibitor with improved pharmacokinetic properties and oral efficacy in models of vascular injury” (J Med Chem, 2010)",
  "key": {"[1]": {"assay": "Physiological stability of the compound at pH 7.4 assessed as compound remaining after 20 hrs in presence of 20% acetonitrile", "format": "physicochemical", "conditions": "read-out: Stability"}, "Plasma [2]": {"system": "Plasma", "assay": "Drug level in Sprague-Dawley rat plasma at 3 mg/kg, po", "format": "ADME, organism-based", "parameters": "dose 3 mg/kg, route oral", "conditions": "in vivo"}, "[3]": {"assay": "Physiological stability of the compound in simulated intestinal bile salts-lecithin mixture fluid assessed as compound remaining after 20 hrs in presence of 20% acetonitrile", "format": "physicochemical", "conditions": "read-out: Stability"}, "[4]": {"assay": "Physiological stability of the compound at pH 7.4 assessed as compound remaining after 12 hrs in presence of 20% acetonitrile", "format": "physicochemical", "conditions": "read-out: Stability"}, "[5]": {"assay": "Physiological stability of the compound at pH 7.4 assessed as compound remaining after 4 hrs in presence of 20% acetonitrile", "format": "physicochemical", "conditions": "read-out: Stability"}, "[6]": {"assay": "Oral bioavailability in Sprague-Dawley rat at 10 mg/kg", "format": "ADME, organism-based", "conditions": "in vivo"}, "[7]": {"assay": "Physiological stability of the compound at pH 6.6 assessed as compound remaining after 20 hrs in presence of 20% acetonitrile", "format": "physicochemical", "conditions": "read-out: Stability"}, "Papio anubis": {"system": "Papio anubis", "assay": "Antithrombotic activity in Baboon deep vein thrombosis model assessed as decrease in vein wall inflammation at 1 mg/kg, po", "format": "functional, organism-based", "parameters": "dose 1 mg/kg"}, "[8]": {"assay": "Permeability from apical to basolateral side in human Caco-2 cells", "format": "ADME, cell-based"}, "[9]": {"assay": "Half life in Beagle dog liver microsomes", "format": "ADME, Canis lupus familiaris, Microsome"}, "[10]": {"assay": "Physiological stability of the compound at pH 1 assessed as compound remaining after 12 hrs in presence of 20% acetonitrile", "format": "physicochemical", "conditions": "read-out: Stability"}, "[11]": {"assay": "Physiological stability of the compound in simulated intestinal bile salts-lecithin mixture fluid assessed as compound remaining after 8 hrs in presence of 20% acetonitrile", "format": "physicochemical", "conditions": "read-out: Stability"}, "[12]": {"assay": "Oral bioavailability in Beagle dog at 10 mg/kg", "format": "ADME, organism-based, Canis lupus familiaris", "conditions": "in vivo"}, "Plasma [13]": {"system": "Plasma", "assay": "Drug level in Sprague-Dawley rat plasma at 30 mg/kg, po", "format": "ADME, organism-based", "parameters": "dose 30 mg/kg, route oral", "conditions": "in vivo"}, "[14]": {"assay": "Physiological stability of the compound at pH 9 assessed as compound remaining after 16 hrs in presence of 20% acetonitrile", "format": "physicochemical", "conditions": "read-out: Stability"}, "[15]": {"assay": "Aqueous solubility of the compound at pH 9", "format": "physicochemical", "conditions": "aqueous solution, read-out: solubility"}, "[16]": {"assay": "Physiological stability of the compound at pH 9 assessed as compound remaining after 8 hrs in presence of 20% acetonitrile", "format": "physicochemical", "conditions": "read-out: Stability"}, "Rattus norvegicus [17]": {"system": "Rattus norvegicus", "assay": "Inhibition of leukocytes rolling flux in acute intravital microscopy model of Sprague-Dawley rat cremasteric postcapillary venules at 15 mg/kg, po after 35 mins relative to control", "format": "functional"}, "[18]": {"assay": "Physiological stability of the compound at pH 4.5 assessed as compound remaining after 20 hrs in presence of 20% acetonitrile", "format": "physicochemical", "conditions": "read-out: Stability"}, "[19]": {"assay": "Physiological stability of the compound in simulated intestinal bile salts-lecithin mixture fluid assessed as compound remaining after 12 hrs in presence of 20% acetonitrile", "format": "physicochemical", "conditions": "read-out: Stability"}, "[20]": {"assay": "Half life in Sprague-Dawley rat liver microsomes", "format": "ADME, Microsome"}, "[21]": {"assay": "Physiological stability of the compound at pH 4.5 assessed as compound remaining after 12 hrs in presence of 20% acetonitrile", "format": "physicochemical", "conditions": "read-out: Stability"}, "[22]": {"assay": "Physiological stability of the compound at pH 6.6 assessed as compound remaining after 24 hrs in presence of 20% acetonitrile", "format": "physicochemical", "conditions": "read-out: Stability"}, "Mus musculus": {"system": "Mus musculus", "assay": "Dose normalized AUC in C57B6 mouse measured per mg of plasma at 2 mg/kg, iv and 10 mg/kg, po", "format": "ADME, organism-based", "conditions": "in vivo"}, "[23]": {"assay": "Solubility of the compound in fed simulated intestinal bile salts-lecithin mixture fluid at pH 5.5", "format": "physicochemical"}, "[24]": {"assay": "Physiological stability of the compound in simulated intestinal bile salts-lecithin mixture fluid assessed as compound remaining after 4 hrs in presence of 20% acetonitrile", "format": "physicochemical", "conditions": "read-out: Stability"}, "[25]": {"assay": "Physiological stability of the compound at pH 1 assessed as compound remaining after 20 hrs in presence of 20% acetonitrile", "format": "physicochemical", "conditions": "read-out: Stability"}, "Cynomolgus monkey": {"system": "Cynomolgus monkey", "assay": "Dose normalized AUC in cynomolgus monkey measured per mg of plasma at 5 mg/kg, iv and po", "format": "ADME, organism-based, Macaca fascicularis", "parameters": "dose 5 mg/kg, route oral", "conditions": "in vivo"}, "[26]": {"target": "T1, P-selectin glycoprotein ligand 1 (Homo sapiens) (UniProt Q14242)", "T1 sequence (whole entry)": "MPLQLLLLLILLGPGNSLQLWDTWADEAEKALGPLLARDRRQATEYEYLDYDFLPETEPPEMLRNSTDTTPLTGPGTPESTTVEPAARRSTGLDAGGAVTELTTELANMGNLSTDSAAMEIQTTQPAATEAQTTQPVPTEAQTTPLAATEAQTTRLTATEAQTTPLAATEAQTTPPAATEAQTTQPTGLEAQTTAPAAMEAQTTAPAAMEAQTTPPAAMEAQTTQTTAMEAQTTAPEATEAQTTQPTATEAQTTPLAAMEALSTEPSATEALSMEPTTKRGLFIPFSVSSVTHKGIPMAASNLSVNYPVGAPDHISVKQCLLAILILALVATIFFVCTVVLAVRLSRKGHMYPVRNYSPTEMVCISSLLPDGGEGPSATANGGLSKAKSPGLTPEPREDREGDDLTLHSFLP", "assay": "Inhibition of recombinant PSGL-1 at 250 uM by surface plasmon resonance assay"}, "[27]": {"target": "T1, P-selectin glycoprotein ligand 1 (Homo sapiens)", "assay": "Binding affinity to recombinant PSGL-1 assessed as saturation transfer difference at 100 uM by NMR analysis"}, "Rattus norvegicus [28]": {"system": "Rattus norvegicus", "assay": "Dose normalized AUC in Sprague-Dawley rat measured per mg of plasma at 3 mg/kg, iv and 10 mg/kg, po", "format": "ADME, organism-based", "conditions": "in vivo"}, "[29]": {"assay": "Physiological stability of the compound at pH 9 assessed as compound remaining after 20 hrs in presence of 20% acetonitrile", "format": "physicochemical", "conditions": "read-out: Stability"}, "[30]": {"assay": "Clearance in Beagle dog at 2 mg/kg, iv and 10 mg/kg, po", "format": "ADME, organism-based, Canis lupus familiaris", "conditions": "in vivo"}},
  "note": "The source made the active and inactive calls. The calls are words filed in the database; no cut-off is given here.",
  "data": [
    {"smiles": "O=C(O)c1c(O)c(C2(c3ccc(Cl)cc3)CC2)nc2c(C(F)(F)F)cccc12", "values": [
      {"measurement": "remaining at 20 h", "setting": "[1]", "result": 102, "unit": "%"},
      {"measurement": "Cp", "setting": "Plasma [2]", "result": 3, "unit": "µg/mL"},
      {"measurement": "remaining at 20 h", "setting": "[3]", "result": 103, "unit": "%"},
      {"measurement": "remaining at 12 h", "setting": "[4]", "result": 102, "unit": "%"},
      {"measurement": "remaining at 4 h", "setting": "[5]", "result": 102, "unit": "%"},
      {"measurement": "bioavailability", "setting": "[6]", "result": 67, "unit": "%"},
      {"measurement": "remaining at 20 h", "setting": "[7]", "result": 102, "unit": "%"},
      {"measurement": "Activity", "setting": "Papio anubis", "result": "Active"},
      {"measurement": "Papp A→B", "setting": "[8]", "result": 5.1, "unit": "×10⁻⁶ cm/s"},
      {"measurement": "half-life", "setting": "[9]", "result": "> 60", "unit": "min"},
      {"measurement": "remaining at 12 h", "setting": "[10]", "result": 102, "unit": "%"},
      {"measurement": "remaining at 8 h", "setting": "[11]", "result": 101, "unit": "%"},
      {"measurement": "bioavailability", "setting": "[12]", "result": 100, "unit": "%"},
      {"measurement": "Cp", "setting": "Plasma [13]", "result": 38, "unit": "µg/mL"},
      {"measurement": "remaining at 16 h", "setting": "[14]", "result": 98.7, "unit": "%"},
      {"measurement": "solubility", "setting": "[15]", "result": 1070, "unit": "µg/mL"},
      {"measurement": "remaining at 8 h", "setting": "[16]", "result": 98, "unit": "%"},
      {"measurement": "inhibition in vivo at 15 mg/kg", "setting": "Rattus norvegicus [17]", "result": 51, "unit": "%"},
      {"measurement": "remaining at 20 h", "setting": "[18]", "result": 100, "unit": "%"},
      {"measurement": "remaining at 12 h", "setting": "[19]", "result": 101, "unit": "%"},
      {"measurement": "half-life", "setting": "[20]", "result": "> 60", "unit": "min"},
      {"measurement": "remaining at 12 h", "setting": "[21]", "result": 99.2, "unit": "%"},
      {"measurement": "remaining at 24 h", "setting": "[22]", "result": 104, "unit": "%"},
      {"measurement": "AUC", "setting": "Mus musculus", "result": 1505, "unit": "ng·h/mL"},
      {"measurement": "solubility", "setting": "[23]", "result": 835, "unit": "µg/mL"},
      {"measurement": "remaining at 4 h", "setting": "[24]", "result": 102, "unit": "%"},
      {"measurement": "remaining at 20 h", "setting": "[25]", "result": 102, "unit": "%"},
      {"measurement": "AUC", "setting": "Cynomolgus monkey", "result": 84620, "unit": "ng·h/mL"},
      {"measurement": "inhibition", "setting": "[26]", "result": 55, "unit": "%"},
      {"measurement": "Activity", "setting": "[27]", "result": 9, "unit": "%"},
      {"measurement": "AUC", "setting": "Rattus norvegicus [28]", "result": 21000, "unit": "ng·h/mL"},
      {"measurement": "remaining at 20 h", "setting": "[29]", "result": 101, "unit": "%"},
      {"measurement": "clearance", "setting": "[30]", "result": 0.9, "unit": "mL/min/kg"}
    ]}
  ]
}
